Results taken from ChEMBL document CHEMBL4295262, “Evaluation of the utility of stem-cell derived cardiomyocytes for drug proarrhythmic potential” (2019).

What was measured:
Settings in all cases: human, ipsc-cm
[1] = (§1) Electrical activity assay on cell lines treated with a given drug. DMSO was used as a vehicle and a control, unblinded dofetilide was used as a control.; type: cell-based; parameters: APDc: unit not given here
[2] = as §1; type: ADME, cell-based; parameters: FPDc: unit not given here
[3] = as §1
[4] = as §1; remark: listed apart in the source
[5] = as §1; type: ADME, cell-based
[6] = as §1; remark: listed apart in the source
[7] = as §1; type: ADME, cell-based; remark: listed apart in the source
[8] = 0.0001 µM, concentration (um) 0.0001 uM
[9] = 0.001 µM, concentration (um) 0.001 uM
[10] = 0.01 µM, concentration (um) 0.01 uM
[11] = 0.1 µM, concentration (um) 0.1 uM
[12] = 0.9507 µM, concentration (um) 0.950736 uM
[13] = 3.004 µM, concentration (um) 3.00433 uM
[14] = 9.494 µM, concentration (um) 9.49367 uM
[15] = 30 µM, concentration (um) 30 uM

For `COc1ccc(CCN2CCC(Nc3nc4ccccc4n3Cc3ccc(F)cc3)CC2)cc1` [ASTEMIZOLE], which APDc [1, 8] is on record?
The APDc was 54.17.

What about the FPD measurement [1, 8] of the same molecule?
The FPD measurement was 54.17 FPDc.

And the APDc [1, 9]?
The APDc was 53.88.

What about the FPD measurement [1, 9] of the same molecule?
Its FPD measurement is 53.88 FPDc.

And the APDc [1, 10]?
The APDc was 57.03.

And the FPD measurement [1, 10]?
Its FPD measurement is 57.03 FPDc.

And the APDc [1, 11]?
The APDc was 77.9.

And the FPD measurement [1, 11]?
Its FPD measurement is 77.9 FPDc.

What about the FPD measurement [2, 8] of the same molecule?
Its FPD measurement is 5 Values Out Of 5 Were Excluded Due To Quiescence Or 0 Apdc.

What about the FPDc [2, 8] of the same molecule?
The FPDc was 53.45.

And the FPD measurement [2, 9]?
Its FPD measurement is 5 Values Out Of 5 Were Excluded Due To Quiescence Or 0 Apdc.

And the FPDc [2, 9]?
The FPDc was 49.25.

What about the FPD measurement [2, 10] of the same molecule?
Its FPD measurement is 5 Values Out Of 5 Were Excluded Due To Quiescence Or 0 Apdc.

What about the FPDc [2, 10] of the same molecule?
Its FPDc is 53.23.

And the FPD measurement [2, 11]?
The FPD measurement was 5 Values Out Of 5 Were Excluded Due To Quiescence Or 0 Apdc.

What about the FPDc [2, 11] of the same molecule?
The FPDc was 40.28.

And the FPD measurement ([3]; 0.0001 µM)?
The FPD measurement was 1 Values Out Of 1 Were Excluded Due To Quiescence Or 0 Fpdc.

What about the FPDc ([3]; 0.0001 µM) of the same molecule?
Its FPDc is 1 Values Out Of 1 Were Excluded Due To Quiescence Or 0 Fpdc.

And the FPD measurement ([3]; 0.001 µM)?
Its FPD measurement is 1 Values Out Of 1 Were Excluded Due To Quiescence Or 0 Fpdc.

What about the FPDc ([3]; 0.001 µM) of the same molecule?
The FPDc was 1 Values Out Of 1 Were Excluded Due To Quiescence Or 0 Fpdc.

What about the FPD measurement ([3]; 0.01 µM) of the same molecule?
The FPD measurement was 1 Values Out Of 1 Were Excluded Due To Quiescence Or 0 Fpdc.

What about the FPDc ([3]; 0.01 µM) of the same molecule?
The FPDc was 1 Values Out Of 1 Were Excluded Due To Quiescence Or 0 Fpdc.

And the FPD measurement ([3]; 0.1 µM)?
Its FPD measurement is 1 Values Out Of 1 Were Excluded Due To Quiescence Or 0 Fpdc.

And the FPDc ([3]; 0.1 µM)?
Its FPDc is 1 Values Out Of 1 Were Excluded Due To Quiescence Or 0 Fpdc.

And the FPD measurement ([4]; 0.0001 µM)?
The FPD measurement was 55.11 FPDc.

And the FPDc ([4]; 0.0001 µM)?
The FPDc was 55.11.

And the FPD measurement ([4]; 0.001 µM)?
The FPD measurement was 55.33 FPDc.

What about the FPDc ([4]; 0.001 µM) of the same molecule?
The FPDc was 55.33.

And the FPD measurement ([4]; 0.01 µM)?
Its FPD measurement is 57.8 FPDc.

What about the FPDc ([4]; 0.01 µM) of the same molecule?
The FPDc was 57.8.

What about the FPD measurement ([4]; 0.1 µM) of the same molecule?
Its FPD measurement is 75.34 FPDc.

What about the FPDc ([4]; 0.1 µM) of the same molecule?
The FPDc was 75.34.

What does the source list for `C=C[C@H]1C[N@@]2CC[C@H]1C[C@@H]2[C@@H](O)c1ccnc2ccc(OC)cc12` [QUINIDINE]?
FPD measurement [5, 12]: 5 Values Out Of 5 Were Excluded Due To Quiescence Or 0 Apdc; FPDc [5, 12]: 23.33; FPD measurement [5, 13]: 5 Values Out Of 5 Were Excluded Due To Quiescence Or 0 Apdc; FPDc [5, 13]: 5 Values Out Of 5 Were Excluded Due To Quiescence Or 0 Fpdc; FPD measurement [5, 14]: More Than Half The Wells Had A Quiescence Event Or Apdc Readings Of 0; FPDc [5, 14]: More Than Half The Wells Had A Quiescence Event Or Fpdc Readings Of 0; FPD measurement [5, 15]: More Than Half The Wells Had A Quiescence Event Or Apdc Readings Of 0; FPDc [5, 15]: More Than Half The Wells Had A Quiescence Event Or Fpdc Readings Of 0; APDc ([6]; 0.9507 µM): 66.37; FPD measurement ([6]; 0.9507 µM): 66.37 FPDc; APDc ([6]; 3.004 µM): 68.44; FPD measurement ([6]; 3.004 µM): 68.44 FPDc; APDc ([6]; 9.494 µM): More Than Half The Wells Had A Quiescence Event Or Apdc Readings Of 0; FPD measurement ([6]; 9.494 µM): More Than Half The Wells Had A Quiescence Event Or Apdc Readings Of 0; APDc ([6]; 30 µM): More Than Half The Wells Had A Quiescence Event Or Apdc Readings Of 0; FPD measurement ([6]; 30 µM): More Than Half The Wells Had A Quiescence Event Or Apdc Readings Of 0; FPD measurement [2, 12]: 5 Values Out Of 5 Were Excluded Due To Quiescence Or 0 Apdc; FPDc [2, 12]: 51.68; FPD measurement [2, 13]: 5 Values Out Of 5 Were Excluded Due To Quiescence Or 0 Apdc; FPDc [2, 13]: 48.01; FPD measurement [2, 14]: 5 Values Out Of 5 Were Excluded Due To Quiescence Or 0 Apdc; FPDc [2, 14]: 56.69; FPD measurement [2, 15]: 5 Values Out Of 5 Were Excluded Due To Quiescence Or 0 Apdc; FPDc [2, 15]: 51.52; FPD measurement ([4]; 0.9507 µM): 66.27 FPDc; FPDc ([4]; 0.9507 µM): 66.27; FPD measurement ([4]; 3.004 µM): More Than Half The Wells Had A Quiescence Event Or Fpdc Readings Of 0; FPDc ([4]; 3.004 µM): More Than Half The Wells Had A Quiescence Event Or Fpdc Readings Of 0; FPD measurement ([4]; 9.494 µM): More Than Half The Wells Had A Quiescence Event Or Fpdc Readings Of 0; FPDc ([4]; 9.494 µM): More Than Half The Wells Had A Quiescence Event Or Fpdc Readings Of 0; FPD measurement ([4]; 30 µM): More Than Half The Wells Had A Quiescence Event Or Fpdc Readings Of 0; FPDc ([4]; 30 µM): More Than Half The Wells Had A Quiescence Event Or Fpdc Readings Of 0; FPD measurement [7, 12]: 114.6 FPDc; FPDc [7, 12]: 6 Values Out Of 6 Were Excluded Due To Quiescence Or 0 Fpdc; FPD measurement [7, 13]: 62.36 FPDc; FPDc [7, 13]: 6 Values Out Of 6 Were Excluded Due To Quiescence Or 0 Fpdc; FPDc [7, 14]: 6 Values Out Of 6 Were Excluded Due To Quiescence Or 0 Fpdc; FPDc [7, 15]: 6 Values Out Of 6 Were Excluded Due To Quiescence Or 0 Fpdc
